Results on 51 compounds are retold here after patent publication US8808702B2, “Sulfide, sulfoxide and sulfone chalcone analogues, derivatives thereof and therapeutic uses thereof” (Temple University-of the Commonwealth System of Higher …, priority 2006, dated 2014).

Where two headings read alike, the source gives them in different places.

For assay [1], the system named is K562 (chronic myelogenous leukaemia). The assay can be described thus: Effect of compounds on tumor cell lines (assay of Latham et al.), K562. The class given is cell-based. The note with it: Table 1, K562 cells, examined 96 hours after treatment, 1 μM to 100 μM in DMSO, read-out: K 562 potency (IC50). As for the experimental part:
(§1) The effect of the compounds of the invention on tumor cells was determined by the assay described by Latham et al., Oncogene 12:827-837 (1996). Tumor cells K562 (chronic myelogenous leukaemia) or DU145 (prostate cancer) were plated in 12-well dishes at a cell density of 2.5×10^4 cells well. The plated cells were treated 24 hours later with a compound of the invention dissolved in DMSO at multiple concentrations ranging from 1 μM to 100 μM. The plates were examined 96 hours later under an inverted microscope, Olympus CK-2 using an 10× objective, and compound activity was noted by physical observation. When necessary, the total number of viable cells was determined by trypsinizing the wells and counting the number of viable cells, as determined by trypan blue exclusion, using a hemacytometer.
(§2) The representative compounds listed in Tables 1-5 are shown by way of illustration, and are not intended to limit the scope of the invention. The compounds are prepared and tested by methods based on those described above, except that the compound of Table 5 was dissolved in DMSO at multiple concentrations ranging from 0.1 μM to 100 μM

In the next assay the test system is DU145 (prostate cancer). In words: Effect of compounds on tumor cell lines (assay of Latham et al.), DU145. It counts as cell-based. The note with it: Table 1, DU145 cells, examined 96 hours after treatment, 1 μM to 100 μM in DMSO, read-out: DU 145 potency (IC50). How it is done:
as §1, §2

In the case of `O=C(C(=Cc1ccc([N+](=O)[O-])c(O)c1)Sc1c(F)c(F)c(F)c(F)c1F)c1ccc(Br)cc1` [Example 1], the concentration for half-maximal inhibition (IC50) lay in the range of 1 to 10 µM in assay [1] and 10 to 25 µM in the assay with DU145 (prostate cancer).

In the case of `O=C(C(=Cc1ccc(O)c([N+](=O)[O-])c1)Sc1c(F)c(F)c(F)c(F)c1F)c1ccc(Br)cc1` [Example 2], the 50% inhibitory concentration (IC50) (in assay [1]; in the assay on DU145 (prostate cancer)) was 10 to 25 µM throughout.

With `O=C(C(=Cc1cc(Cl)cc(Cl)c1Cl)Sc1ccccc1Br)c1ccc(Cl)cc1` [Example 3], the results for the 50% inhibitory concentration (IC50) (in assay [1]; with DU145 (prostate cancer)) were 50 to 100 µM and 25 to 50 µM, respectively.

With `O=C(C(=Cc1c(O)cc(O)cc1O)Sc1ccccc1Br)c1ccc(Br)cc1` [Example 4], the 50% inhibitory concentration (IC50) (in assay [1]; with DU145 (prostate cancer)) was over 100 µM each time.

`O=C(C(=Cc1c(O)cc(O)cc1O)Sc1ccccc1Br)c1ccc(Cl)cc1` [Example 5]: the concentration for half-maximal inhibition (IC50) (in assay [1]; with DU145 (prostate cancer)) was over 100 µM throughout.

On to `O=C(C(=Cc1ccc(O)cc1O)Sc1ccccc1Br)c1ccc(Br)cc1` [Example 6], for which the concentration for half-maximal inhibition (IC50) (in assay [1]; in the assay on DU145 (prostate cancer)) was 50 to 100 µM each time.

As to `O=C(C(=Cc1ccc(O)cc1O)Sc1ccccc1Br)c1ccc(Cl)cc1` [Example 7], the half-inhibitory concentration (IC50) (in assay [1]; with DU145 (prostate cancer)) was 50 to 100 µM throughout.

As to `O=C(C(=Cc1ccccc1O)Sc1ccccc1Br)c1ccc(Br)cc1` [Example 8], the half-maximal inhibitory concentration (IC50) (in assay [1]; in the assay with DU145 (prostate cancer)) was 50 to 100 µM in each case.

For the compound `O=C(C(=Cc1ccc(Br)cc1)Sc1ccccc1Br)c1ccc(Br)cc1` [Example 9], the IC50 (in assay [1]; in the assay on DU145 (prostate cancer)) was 1 to 10 µM each time.

Take `O=C(C(=Cc1ccc(O)c([N+](=O)[O-])c1)Sc1ccccc1Br)c1ccc(Br)cc1` [Example 10]: the IC50 in assay [1] lay in the range of 10 to 25 µM; in the assay on DU145 (prostate cancer) it was 1 to 10 µM.

`O=C(C(=Cc1ccc(O)c([N+](=O)[O-])c1)Sc1ccccc1Br)c1ccc(Cl)cc1` [Example 11]: the IC50 in assay [1] is 10 to 25 µM; in the assay on DU145 (prostate cancer) it was 25 to 50 µM.

With `CN(C)c1ccc(C=C(Sc2ccccc2Br)C(=O)c2ccc(Br)cc2)cc1` [Example 12], the 50% inhibitory concentration (IC50) (in assay [1]; with DU145 (prostate cancer)) was over 100 µM throughout.

For `O=C(C(=Cc1c(O)cc(O)cc1O)Sc1ccc(Br)cc1)c1ccc(Cl)cc1` [Example 13], the results for the IC50 (in assay [1]; with DU145 (prostate cancer)) were 50 to 100 µM and 25 to 50 µM, respectively.

With `COc1cc(OC)c(C=C(Sc2ccc(Br)cc2)C(=O)c2ccc(Cl)cc2)c(OC)c1` [Example 14], the half-inhibitory concentration (IC50) (in assay [1]; in the assay with DU145 (prostate cancer)) was 50 to 100 µM each time.

Turning to `O=C(/C(=C\c1ccc(Cl)cc1Cl)Sc1ccc(Br)cc1)c1ccc(Br)cc1` [Example 15, (E)-1-(4-Bromophenyl)-2-(4-bromophenylthio)-3-(2,4-dichlorophenyl)-prop-2-en-1-one], the IC50 in assay [1] (Homo sapiens) fell in the range of 1 to 10 µM; in the assay with DU145 (prostate cancer) (Homo sapiens, DU-145) it was 1 to 10 µM.

With `O=C(C(=Cc1ccc(O)cc1O)Sc1ccc(Br)cc1)c1ccc(Cl)cc1` [Example 16], the values for the IC50 (in assay [1]; in the assay on DU145 (prostate cancer)) were 25 to 50 µM and 50 to 100 µM, respectively.

For the compound `O=C(C(=Cc1ccc(F)cc1F)Sc1ccc(Br)cc1)c1ccc(Br)cc1` [Example 17], the concentration for half-maximal inhibition (IC50) (in assay [1]; in the assay on DU145 (prostate cancer)) was 1 to 10 µM in each case.

Turning to `O=C(C(=Cc1ccc(F)cc1F)Sc1ccc(Br)cc1)c1ccc(Cl)cc1` [Example 18], the 50% inhibitory concentration (IC50) (in assay [1]; in the assay on DU145 (prostate cancer)) was 1 to 10 µM in each case.

On to `Cc1ccc(C)c(C=C(Sc2ccc(Br)cc2)C(=O)c2ccc(Cl)cc2)c1` [Example 19], for which the IC50 (in assay [1]; in the assay on DU145 (prostate cancer)) was 10 to 25 µM in each case.

Take `Nc1c(Br)cc(Br)cc1C=C(Sc1ccc(Br)cc1)C(=O)c1ccc(Br)cc1` [Example 20]: the 50% inhibitory concentration (IC50) (in assay [1]; in the assay on DU145 (prostate cancer)) was over 100 µM each time.

For `O=C(C(=Cc1ccccc1OCc1ccccc1)Sc1ccc(Br)cc1)c1ccc(Cl)cc1` [Example 21], the concentration for half-maximal inhibition (IC50) (in assay [1]; with DU145 (prostate cancer)) was 10 to 25 µM in each case.

For the compound `O=C(C(=Cc1ccc(F)cc1Cl)Sc1ccc(Br)cc1)c1ccc(Br)cc1` [Example 22], the IC50 (in assay [1]; in the assay with DU145 (prostate cancer)) was 1 to 10 µM throughout.

For the compound `COc1ccc(C=C(Sc2ccc(Br)cc2)C(=O)c2ccc(Br)cc2)c(F)c1` [Example 23], the concentration for half-maximal inhibition (IC50) in assay [1] fell in the range of 1 to 10 µM; with DU145 (prostate cancer), 10 to 25 µM.

In the case of `O=C(C(=Cc1ccccc1F)Sc1ccc(Br)cc1)c1ccc(Cl)cc1` [Example 24], the concentration for half-maximal inhibition (IC50) in assay [1] lay in the range of 1 to 10 µM; in the assay with DU145 (prostate cancer) it was 10 to 25 µM.

For `COc1ccccc1C=C(Sc1ccc(Br)cc1)C(=O)c1ccc(Cl)cc1` [Example 25], the concentration for half-maximal inhibition (IC50) (in assay [1]; with DU145 (prostate cancer)) was 10 to 25 µM in each case.

On to `Cc1cc(C)cc(C=C(Sc2ccc(Br)cc2)C(=O)c2ccc(Cl)cc2)c1` [Example 26], for which the IC50 in assay [1] was in the range of 1 to 10 µM; in the assay on DU145 (prostate cancer), 10 to 25 µM.

`O=C(C(=Cc1ccc(O)c(Br)c1)Sc1ccc(Br)cc1)c1c(F)c(F)c(F)c(F)c1F` [Example 27]: the concentration for half-maximal inhibition (IC50) (in assay [1]; with DU145 (prostate cancer)) was 1 to 10 µM each time.

`O=C(O)c1cc(C=C(Sc2ccc(Br)cc2)C(=O)c2c(F)c(F)c(F)c(F)c2F)ccc1O` [Example 28]: the IC50 (in assay [1]; with DU145 (prostate cancer)) was 25 to 50 µM throughout.

Consider `O=C(C(=Cc1ccc([N+](=O)[O-])c(O)c1)Sc1ccc(Br)cc1)c1c(F)c(F)c(F)c(F)c1F` [Example 30], for which the half-maximal inhibitory concentration (IC50) (in assay [1]; in the assay on DU145 (prostate cancer)) was 1 to 10 µM throughout.

For the compound `O=C(C(=Cc1c[nH]c2ccccc12)Sc1ccc(Br)cc1)c1ccc(Br)cc1` [Example 31], the IC50 (in assay [1]; in the assay with DU145 (prostate cancer)) was 1 to 10 µM throughout.

Consider `O=C(C(=Cc1ccc(Br)c(O)c1)Sc1ccc(Br)cc1)c1ccc(Br)cc1` [Example 32], for which the IC50 (in assay [1]; with DU145 (prostate cancer)) was 1 to 10 µM each time.

For `O=C(C(=Cc1ccc(Br)c([N+](=O)[O-])c1)Sc1ccc(Br)cc1)c1ccc(Br)cc1` [Example 34], the 50% inhibitory concentration (IC50) (in assay [1]; in the assay with DU145 (prostate cancer)) was 1 to 10 µM each time.

With `O=C(C(=Cc1ccc(Br)cc1)Sc1ccc(Br)cc1)c1ccc(Br)cc1` [Example 35], the half-maximal inhibitory concentration (IC50) (in assay [1]; in the assay on DU145 (prostate cancer)) was 1 to 10 µM each time.

Consider `O=C(C(=Cc1ccc(Br)cc1)Sc1ccc(Br)cc1)c1ccc(Cl)cc1` [Example 36], for which the IC50 (in assay [1]; with DU145 (prostate cancer)) was 1 to 10 µM each time.

`O=C(C(=Cc1ccc(Cl)c([N+](=O)[O-])c1)Sc1ccc(Br)cc1)c1ccc(Br)cc1` [Example 37]: the IC50 (in assay [1]; in the assay on DU145 (prostate cancer)) was 1 to 10 µM each time.

As to `O=C(C(=Cc1ccc(Cl)cc1)Sc1ccc(Br)cc1)c1ccc(Br)cc1` [Example 38], the IC50 (in assay [1]; in the assay on DU145 (prostate cancer)) was 1 to 10 µM in each case.

Regarding `COc1cc(C=C(Sc2ccc(Br)cc2)C(=O)c2ccc(Br)cc2)ccc1F` [Example 39], the IC50 (in assay [1]; with DU145 (prostate cancer)) was 1 to 10 µM each time.

In the case of `O=C(C(=Cc1ccc(F)cc1)Sc1ccc(Br)cc1)c1ccc(Br)cc1` [Example 40], the IC50 in assay [1] fell in the range of 1 to 10 µM; with DU145 (prostate cancer) it was 10 to 25 µM.

Consider `COc1cc(C=C(Sc2ccc(Br)cc2)C(=O)c2ccc(Br)cc2)ccc1O` [Example 41], for which the concentration for half-maximal inhibition (IC50) (in assay [1]; with DU145 (prostate cancer)) was 1 to 10 µM each time.

With `O=C(C(=Cc1ccc(O)c([N+](=O)[O-])c1)Sc1ccc(Br)cc1)c1c(F)c(F)c(F)c(F)c1F` [Example 42], the IC50 (in assay [1]; in the assay with DU145 (prostate cancer)) was 1 to 10 µM throughout.

As for `O=C(C(=Cc1ccc(O)c([N+](=O)[O-])c1)Sc1ccc(Br)cc1)c1ccc(Br)cc1` [Example 43], the IC50 (in assay [1]; in the assay with DU145 (prostate cancer)) was 1 to 10 µM in each case.

As to `CSc1ccc(C=C(Sc2ccc(Br)cc2)C(=O)c2ccc(Cl)cc2)cc1` [Example 46], the IC50 (in assay [1]; in the assay on DU145 (prostate cancer)) was 1 to 10 µM throughout.

`COc1ccc(C=C(Sc2ccc(Br)cc2)C(=O)c2ccc(Br)cc2)cc1` [Example 47]: the IC50 in assay [1] lay in the range of 1 to 10 µM; in the assay on DU145 (prostate cancer) it was 25 to 50 µM.

Consider `COc1ccc(C=C(Sc2ccc(Br)cc2)C(=O)c2ccc(Cl)cc2)cc1` [Example 48], for which the IC50 was 1 to 10 µM in assay [1] and 50 to 100 µM in the assay on DU145 (prostate cancer).

Consider `CN(C)c1ccc(C=C(Sc2ccc(Br)cc2)C(=O)c2ccc(Cl)cc2)cc1` [Example 49], for which the IC50 (in assay [1]; in the assay with DU145 (prostate cancer)) was over 100 µM throughout.

Regarding `O=C(C(=Cc1ccc(Oc2ccccc2)cc1)Sc1ccc(Br)cc1)c1ccc(Br)cc1` [Example 50], the IC50 (in assay [1]; with DU145 (prostate cancer)) was 50 to 100 µM in each case.

As for `O=C(C(=Cc1ccc(OC(F)(F)F)cc1)Sc1ccc(Br)cc1)c1ccc(Br)cc1` [Example 51], the half-inhibitory concentration (IC50) (in assay [1]; in the assay with DU145 (prostate cancer)) was 1 to 10 µM each time.

Regarding `COc1ccc2[nH]cc(C=C(Sc3ccc(Br)cc3)C(=O)c3ccc(Br)cc3)c2c1` [Example 52], the IC50 (in assay [1]; in the assay on DU145 (prostate cancer)) was 1 to 10 µM in each case.

Turning to `O=C(C(=Cc1ccc(Cl)cc1)Sc1ccc(Cl)cc1)c1ccc(Cl)cc1` [Example 53], the IC50 (in assay [1]; with DU145 (prostate cancer)) was 1 to 10 µM throughout.

Consider `COc1ccc(C(=O)C(=Cc2c(OC)cc(OC)cc2OC)Sc2ccc(F)cc2)cc1` [Example 54], for which the IC50 (in assay [1]; in the assay on DU145 (prostate cancer)) was 50 to 100 µM in each case.

For `O=C(C(=Cc1ccccc1OCc1ccccc1)Sc1ccc(F)cc1)c1ccc(Cl)cc1` [Example 55], the 50% inhibitory concentration (IC50) (in assay [1]; with DU145 (prostate cancer)) was 1 to 10 µM each time.

The IC50 is the concentration at which inhibition is half-maximal.
